Data taken from patent US20230341403A1, “METHODS AND KITS FOR THE DIAGNOSIS OF LUNG CANCER” (priority 2020, published 2023).

System: A549 cells transfected with the LARGE portion of the isoform 4 (PC4-5)
Test: Cell proliferation by CFSE and flow cytometry in transfected A549 cells
Assay type: cell-based, human
Details: FIG. 6B; for tumour growth / cancer proliferation in the cells transfected with the "large" subunit of the isoform 4: concentration not stated at this place
Method: Transfections. A549 cells, lung adenocarcinoma, were transfected by means of marketable kits for 72 hours in transient way with the plasmid vectors: 1. PC4-1, miming the whole isoform 1 of the caspase-4; 2. PC4-2, miming CARD+LARGE subunit; 3. PC4-3, miming LARGE+SMALL subunit of the isoform 1; 4. PC4-4, miming LARGE subunit of the isoform 1 and 5. PC4-5, miming LARGE subunit of the isoform 4 of the caspase-4. The cell proliferation was evaluated through method of CFSE (1 μM), analysed by means of flow cytometry. In some experiments, the transfected cells marked with CFSE, were subjected to treatment with two leader compounds (compound 5: COMP-5; compound 6: COMP-6).
In order to understand the role of the isoform 4 in the cancer growth, the A549 cells, cells of lung adenocarcinoma, were transfected with specific vectors, containing specific portions of the isoform 1 and isoform 4 as described in FIG. 6A. It was observed that the isoform 4 and 1 are both capable of promoting cancer proliferation when the LARGE subunit is expressed with respect to the other considered structures (FIG. 6A). At last, the cells transfected with the large subunit of the isoform 1 (PC4-4) and 4 (PC4-5) were treated with leading compound with the purpose of verifying a cancer growth decrease.

Ac-VVDC-NH2 [compound 6]
cancer growth of the A549 cells transfected with the LARGE portion of the isoform 4 (compound at 10 nM, A549 transfected with PC4-5, CFSE flow cytometry): capable of reducing significantly the cancer growth | tumour growth / cancer proliferation in the cells transfected with the "large" subunit of the isoform 4: can be inhibited | tumour growth / cancer proliferation in the cells transfected with the "large" subunit of the isoform 4 (listed as Ac-VVDC-NH2): significant decrease in the tumour growth
